Assay results as given in ChEMBL document CHEMBL5463729, “Data for DCP probe BAY 1753011” (2023).
Active and inactive are the calls of the source. The calls are words filed in the database; no cut-off is given here.

What was measured:
[1] = biological target: Mitogen-activated protein kinase kinase kinase kinase 4 (Homo sapiens) (UniProt O95819); assay: Inhibition of MAP4K4(h) at 10.0 µM in the Eurofins Kinase panel; details: Compound concentration 10.0 uM
[2] = biological target: Protein-tyrosine kinase 6 (Homo sapiens) (UniProt Q13882); assay: Inhibition of BRK(h) at 10.0 µM in the Eurofins Kinase panel; details: Compound concentration 10.0 uM
[3] = biological target: Myosin-IIIb (Homo sapiens) (UniProt Q8WXR4); assay: Inhibition of MYO3B(h) at 10.0 µM in the Eurofins Kinase panel; details: Compound concentration 10.0 uM
[4] = biological target: Mitogen-activated protein kinase kinase kinase 2 (Homo sapiens) (UniProt Q9Y2U5); assay: Inhibition of MEKK2(h) at 10.0 µM in the Eurofins Kinase panel; details: Compound concentration 10.0 uM
[5] = biological target: Testis-specific serine/threonine-protein kinase 3 (Homo sapiens) (UniProt Q96PN8); assay: Inhibition of TSSK3(h) at 10.0 µM in the Eurofins Kinase panel; details: Compound concentration 10.0 uM
Chain of Testis-specific serine/threonine-protein kinase 3 (Homo sapiens) (Q96PN8 whole entry): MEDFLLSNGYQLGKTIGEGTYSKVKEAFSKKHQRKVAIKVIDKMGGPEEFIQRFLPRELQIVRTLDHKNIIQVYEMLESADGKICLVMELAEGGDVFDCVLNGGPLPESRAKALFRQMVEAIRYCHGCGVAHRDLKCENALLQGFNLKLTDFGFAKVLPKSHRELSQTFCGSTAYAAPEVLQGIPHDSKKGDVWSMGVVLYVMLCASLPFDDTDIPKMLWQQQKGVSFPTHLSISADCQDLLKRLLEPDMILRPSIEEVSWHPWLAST

[6] = biological target: Serine/threonine-protein kinase ULK3 (Homo sapiens) (UniProt Q6PHR2); assay: Inhibition of ULK3(h) at 10.0 µM in the Eurofins Kinase panel; details: Compound concentration 10.0 uM
[7] = biological target: Mu-type opioid receptor (Homo sapiens) (UniProt P35372); details: Compound concentration 10.0 uM
Chain of Mu-type opioid receptor (Homo sapiens) (P35372 whole entry): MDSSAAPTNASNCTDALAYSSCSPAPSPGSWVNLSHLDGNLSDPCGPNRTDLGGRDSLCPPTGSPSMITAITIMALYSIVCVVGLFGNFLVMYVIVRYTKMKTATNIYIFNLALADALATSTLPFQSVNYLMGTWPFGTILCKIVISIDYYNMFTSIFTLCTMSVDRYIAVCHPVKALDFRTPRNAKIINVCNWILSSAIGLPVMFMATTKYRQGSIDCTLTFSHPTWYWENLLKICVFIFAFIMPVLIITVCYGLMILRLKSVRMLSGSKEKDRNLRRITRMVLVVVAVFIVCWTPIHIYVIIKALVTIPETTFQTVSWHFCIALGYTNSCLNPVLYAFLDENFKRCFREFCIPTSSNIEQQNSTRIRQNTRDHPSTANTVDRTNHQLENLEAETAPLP

[8] = biological target: Protein kinase C alpha type (Homo sapiens) (UniProt P17252); assay: Inhibition of PKCalpha(h) at 10.0 µM in the Eurofins Kinase panel; details: Compound concentration 10.0 uM
[9] = biological target: Serine/threonine-protein kinase MRCK alpha (Homo sapiens) (UniProt Q5VT25); assay: Inhibition of MRCKalpha(h) at 10.0 µM in the Eurofins Kinase panel; details: Compound concentration 10.0 uM
[10] = biological target: Ephrin type-B receptor 3 (Homo sapiens) (UniProt P54753); assay: Inhibition of EphB3(h) at 10.0 µM in the Eurofins Kinase panel; details: Compound concentration 10.0 uM
[11] = biological target: T1, Muscarinic acetylcholine receptor M5 (Homo sapiens) (UniProt P08912); details: Compound concentration 10.0 uM
T1 sequence (whole entry): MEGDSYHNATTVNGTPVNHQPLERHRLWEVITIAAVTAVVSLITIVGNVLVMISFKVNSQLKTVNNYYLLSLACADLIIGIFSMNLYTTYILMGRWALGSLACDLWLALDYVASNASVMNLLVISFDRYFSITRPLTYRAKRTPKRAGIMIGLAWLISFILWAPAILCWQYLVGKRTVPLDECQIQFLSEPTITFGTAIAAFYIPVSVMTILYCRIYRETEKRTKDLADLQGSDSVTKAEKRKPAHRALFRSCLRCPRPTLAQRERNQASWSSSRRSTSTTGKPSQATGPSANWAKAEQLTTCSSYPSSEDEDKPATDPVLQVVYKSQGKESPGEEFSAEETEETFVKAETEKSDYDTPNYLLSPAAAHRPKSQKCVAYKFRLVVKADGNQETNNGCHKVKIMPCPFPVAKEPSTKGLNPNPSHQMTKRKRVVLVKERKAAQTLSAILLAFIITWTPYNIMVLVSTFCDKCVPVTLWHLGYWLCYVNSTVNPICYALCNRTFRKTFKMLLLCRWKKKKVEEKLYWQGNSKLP

[12] = biological target: Cyclin-dependent kinase-like 1 (Homo sapiens) (UniProt Q00532); assay: Inhibition of CDKL1(h) at 10.0 µM in the Eurofins Kinase panel; details: Compound concentration 10.0 uM
Chain of Cyclin-dependent kinase-like 1 (Homo sapiens) (Q00532 whole entry): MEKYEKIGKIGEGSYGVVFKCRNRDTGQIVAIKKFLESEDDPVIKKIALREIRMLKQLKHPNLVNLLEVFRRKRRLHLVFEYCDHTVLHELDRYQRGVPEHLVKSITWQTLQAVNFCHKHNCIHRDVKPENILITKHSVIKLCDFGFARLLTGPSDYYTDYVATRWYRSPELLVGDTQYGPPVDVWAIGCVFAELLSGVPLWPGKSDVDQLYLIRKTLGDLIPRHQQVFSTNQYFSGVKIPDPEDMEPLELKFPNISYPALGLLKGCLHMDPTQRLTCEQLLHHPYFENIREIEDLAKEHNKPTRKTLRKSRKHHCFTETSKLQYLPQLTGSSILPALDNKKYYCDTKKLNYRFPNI

[13] = biological target: Endothelin receptor type B (Homo sapiens) (UniProt P24530); details: Compound concentration 10.0 uM
[14] = biological target: Mitogen-activated protein kinase 8 (Homo sapiens) (UniProt P45983); assay: Inhibition of JNK1alpha1(h) at 10.0 µM in the Eurofins Kinase panel; details: Compound concentration 10.0 uM
Chain of Mitogen-activated protein kinase 8 (Homo sapiens) (P45983 whole entry): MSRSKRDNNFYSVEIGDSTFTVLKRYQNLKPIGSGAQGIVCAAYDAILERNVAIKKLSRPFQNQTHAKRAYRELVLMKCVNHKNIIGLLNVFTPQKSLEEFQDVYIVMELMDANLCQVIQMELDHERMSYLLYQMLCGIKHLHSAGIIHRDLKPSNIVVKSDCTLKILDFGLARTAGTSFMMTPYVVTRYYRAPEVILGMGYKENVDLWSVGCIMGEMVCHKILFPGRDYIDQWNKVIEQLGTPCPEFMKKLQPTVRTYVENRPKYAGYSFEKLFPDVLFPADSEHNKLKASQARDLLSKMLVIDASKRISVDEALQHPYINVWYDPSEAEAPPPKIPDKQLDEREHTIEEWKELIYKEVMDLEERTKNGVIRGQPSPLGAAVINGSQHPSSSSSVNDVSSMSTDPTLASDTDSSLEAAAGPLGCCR

[15] = biological target: Mitogen-activated protein kinase kinase kinase 11 (Homo sapiens) (UniProt Q16584); assay: Inhibition of MLK3(h) at 10.0 µM in the Eurofins Kinase panel; details: Compound concentration 10.0 uM
[16] = biological target: Death-associated protein kinase 3 (Homo sapiens) (UniProt O43293); assay: Inhibition of ZIPK(h) at 10.0 µM in the Eurofins Kinase panel; details: Compound concentration 10.0 uM
Chain of Death-associated protein kinase 3 (Homo sapiens) (O43293 whole entry, looked up): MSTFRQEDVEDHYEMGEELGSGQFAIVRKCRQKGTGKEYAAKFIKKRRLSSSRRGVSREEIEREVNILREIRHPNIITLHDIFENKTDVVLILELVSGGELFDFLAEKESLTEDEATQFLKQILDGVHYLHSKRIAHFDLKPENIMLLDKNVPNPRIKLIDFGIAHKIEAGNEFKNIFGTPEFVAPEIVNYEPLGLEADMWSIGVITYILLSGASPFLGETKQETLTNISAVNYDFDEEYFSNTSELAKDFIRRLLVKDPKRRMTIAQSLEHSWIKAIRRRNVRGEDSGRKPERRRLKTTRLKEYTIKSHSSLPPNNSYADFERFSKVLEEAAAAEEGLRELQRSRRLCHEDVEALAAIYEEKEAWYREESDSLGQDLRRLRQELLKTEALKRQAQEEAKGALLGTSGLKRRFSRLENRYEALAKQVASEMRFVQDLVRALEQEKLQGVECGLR

[17] = biological target: 5-hydroxytryptamine receptor 6 (Homo sapiens) (UniProt P50406); details: Compound concentration 10.0 uM
Chain of 5-hydroxytryptamine receptor 6 (Homo sapiens) (P50406 whole entry): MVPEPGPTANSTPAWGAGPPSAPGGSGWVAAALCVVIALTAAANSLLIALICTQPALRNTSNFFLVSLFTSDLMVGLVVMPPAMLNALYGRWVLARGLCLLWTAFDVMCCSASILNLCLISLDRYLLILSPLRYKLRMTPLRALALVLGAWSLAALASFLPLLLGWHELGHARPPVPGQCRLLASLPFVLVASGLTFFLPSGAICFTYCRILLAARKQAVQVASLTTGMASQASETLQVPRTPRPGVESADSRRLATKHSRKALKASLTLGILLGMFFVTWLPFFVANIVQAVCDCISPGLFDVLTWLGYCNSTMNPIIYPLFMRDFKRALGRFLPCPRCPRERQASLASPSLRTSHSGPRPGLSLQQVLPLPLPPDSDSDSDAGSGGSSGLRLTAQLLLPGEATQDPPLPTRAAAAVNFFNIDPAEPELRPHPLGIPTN

[18] = biological target: Tyrosine-protein kinase JAK3 (Homo sapiens) (UniProt P52333); assay: Inhibition of JAK3(h) at 10.0 µM in the Eurofins Kinase panel; details: Compound concentration 10.0 uM
[19] = biological target: Serine/threonine-protein kinase 3 (Homo sapiens) (UniProt Q13188); assay: Inhibition of MST2(h) at 10.0 µM in the Eurofins Kinase panel; details: Compound concentration 10.0 uM
[20] = biological target: Tyrosine-protein kinase CSK (Homo sapiens) (UniProt P41240); assay: Inhibition of CSK(h) at 10.0 µM in the Eurofins Kinase panel; details: Compound concentration 10.0 uM
[21] = biological target: Tyrosine-protein kinase Tec (Homo sapiens) (UniProt P42680); assay: Inhibition of Tec(h) activated at 10.0 µM in the Eurofins Kinase panel; details: Compound concentration 10.0 uM
[22] = biological target: Serine/threonine-protein kinase Nek5 (Homo sapiens) (UniProt Q6P3R8); assay: Inhibition of NEK5(h) at 10.0 µM in the Eurofins Kinase panel; details: Compound concentration 10.0 uM
[23] = biological target: Kappa-type opioid receptor (Homo sapiens, UniProt P41145); details: Compound concentration 10.0 uM
Chain of Kappa-type opioid receptor (P41145 whole entry): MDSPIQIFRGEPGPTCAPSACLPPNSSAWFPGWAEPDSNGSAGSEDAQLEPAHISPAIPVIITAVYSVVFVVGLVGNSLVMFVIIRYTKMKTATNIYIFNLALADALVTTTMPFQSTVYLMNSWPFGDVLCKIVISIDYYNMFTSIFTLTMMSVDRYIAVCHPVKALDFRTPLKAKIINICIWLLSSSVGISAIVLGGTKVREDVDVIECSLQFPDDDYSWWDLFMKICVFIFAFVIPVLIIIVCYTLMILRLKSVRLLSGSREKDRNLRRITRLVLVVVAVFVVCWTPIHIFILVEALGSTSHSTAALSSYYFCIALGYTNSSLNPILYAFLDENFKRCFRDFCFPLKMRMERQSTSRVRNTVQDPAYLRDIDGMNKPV

[24] = biological target: Mitogen-activated protein kinase 1 (Homo sapiens) (UniProt P28482); assay: Inhibition of MAPK1(h) at 10.0 µM in the Eurofins Kinase panel; details: Compound concentration 10.0 uM
[25] = biological target: Epithelial discoidin domain-containing receptor 1 (Homo sapiens) (UniProt Q08345); assay: Inhibition of DDR1(h) at 10.0 µM in the Eurofins Kinase panel; details: Compound concentration 10.0 uM
[26] = biological target: 5-hydroxytryptamine receptor 2B (Homo sapiens) (UniProt P41595); details: Compound concentration 10.0 uM
Vasopressin V1a receptor = Vasopressin V1a receptor (Homo sapiens, UniProt P37288); assay: Inhibition of Vasopressin V1A at 10.0 µM in the Eurofins-Panlabs selectivity screen
[27] = biological target: Dual specificity tyrosine-phosphorylation-regulated kinase 1A (Homo sapiens) (UniProt Q13627); assay: Inhibition of DYRK1A(h) at 10.0 µM in the Eurofins Kinase panel; details: Compound concentration 10.0 uM
[28] = biological target: Delta-type opioid receptor (Homo sapiens) (UniProt P41143); details: Compound concentration 10.0 uM
Chain of Delta-type opioid receptor (Homo sapiens) (P41143 whole entry): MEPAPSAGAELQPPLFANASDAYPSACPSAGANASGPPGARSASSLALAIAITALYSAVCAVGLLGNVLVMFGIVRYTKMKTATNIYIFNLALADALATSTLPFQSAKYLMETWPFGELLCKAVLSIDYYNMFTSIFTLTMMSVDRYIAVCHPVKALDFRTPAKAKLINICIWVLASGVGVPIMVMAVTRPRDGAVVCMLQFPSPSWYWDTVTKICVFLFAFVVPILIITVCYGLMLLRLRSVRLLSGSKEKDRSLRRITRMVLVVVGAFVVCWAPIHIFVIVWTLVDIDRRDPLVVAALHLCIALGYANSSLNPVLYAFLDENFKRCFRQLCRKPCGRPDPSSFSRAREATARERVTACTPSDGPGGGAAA

[29] = biological target: Homeodomain-interacting protein kinase 4 (Homo sapiens) (UniProt Q8NE63); assay: Inhibition of HIPK4(h) at 10.0 µM in the Eurofins Kinase panel; details: Compound concentration 10.0 uM
[30] = biological target: Sodium-dependent serotonin transporter (Homo sapiens) (UniProt P31645); details: Compound concentration 10.0 uM
Chain of Sodium-dependent serotonin transporter (Homo sapiens) (P31645 whole entry, looked up): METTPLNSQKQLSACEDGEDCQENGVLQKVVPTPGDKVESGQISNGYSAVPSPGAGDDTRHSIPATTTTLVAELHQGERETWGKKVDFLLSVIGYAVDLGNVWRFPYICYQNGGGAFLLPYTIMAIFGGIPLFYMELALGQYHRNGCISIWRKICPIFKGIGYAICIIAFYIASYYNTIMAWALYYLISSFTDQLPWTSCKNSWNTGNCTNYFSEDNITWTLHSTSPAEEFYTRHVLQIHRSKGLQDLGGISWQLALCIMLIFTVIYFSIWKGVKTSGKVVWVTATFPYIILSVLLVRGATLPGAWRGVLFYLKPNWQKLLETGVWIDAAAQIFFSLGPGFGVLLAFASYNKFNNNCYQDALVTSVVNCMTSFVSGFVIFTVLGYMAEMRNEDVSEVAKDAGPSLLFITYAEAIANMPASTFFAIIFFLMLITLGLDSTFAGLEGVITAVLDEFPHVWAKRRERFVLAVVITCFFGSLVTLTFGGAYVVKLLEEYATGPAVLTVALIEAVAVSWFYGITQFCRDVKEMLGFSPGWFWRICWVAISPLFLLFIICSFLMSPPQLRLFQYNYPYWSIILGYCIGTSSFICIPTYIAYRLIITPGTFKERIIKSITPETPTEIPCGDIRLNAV

[31] = biological target: Serine/threonine-protein kinase Nek3 (Homo sapiens) (UniProt P51956); assay: Inhibition of NEK3(h) at 10.0 µM in the Eurofins Kinase panel; details: Compound concentration 10.0 uM
[32] = biological target: ALK tyrosine kinase receptor (Homo sapiens) (UniProt Q9UM73); assay: Inhibition of ALK(h) at 10.0 µM in the Eurofins Kinase panel; details: Compound concentration 10.0 uM
Vasopressin V2 receptor = Vasopressin V2 receptor (Homo sapiens, UniProt P30518); assay: Radiometric AVPR2 binding assay (Eurofins #287610)

Chain of Mitogen-activated protein kinase kinase kinase kinase 4 (Homo sapiens) (O95819 2-1239 limits assumed): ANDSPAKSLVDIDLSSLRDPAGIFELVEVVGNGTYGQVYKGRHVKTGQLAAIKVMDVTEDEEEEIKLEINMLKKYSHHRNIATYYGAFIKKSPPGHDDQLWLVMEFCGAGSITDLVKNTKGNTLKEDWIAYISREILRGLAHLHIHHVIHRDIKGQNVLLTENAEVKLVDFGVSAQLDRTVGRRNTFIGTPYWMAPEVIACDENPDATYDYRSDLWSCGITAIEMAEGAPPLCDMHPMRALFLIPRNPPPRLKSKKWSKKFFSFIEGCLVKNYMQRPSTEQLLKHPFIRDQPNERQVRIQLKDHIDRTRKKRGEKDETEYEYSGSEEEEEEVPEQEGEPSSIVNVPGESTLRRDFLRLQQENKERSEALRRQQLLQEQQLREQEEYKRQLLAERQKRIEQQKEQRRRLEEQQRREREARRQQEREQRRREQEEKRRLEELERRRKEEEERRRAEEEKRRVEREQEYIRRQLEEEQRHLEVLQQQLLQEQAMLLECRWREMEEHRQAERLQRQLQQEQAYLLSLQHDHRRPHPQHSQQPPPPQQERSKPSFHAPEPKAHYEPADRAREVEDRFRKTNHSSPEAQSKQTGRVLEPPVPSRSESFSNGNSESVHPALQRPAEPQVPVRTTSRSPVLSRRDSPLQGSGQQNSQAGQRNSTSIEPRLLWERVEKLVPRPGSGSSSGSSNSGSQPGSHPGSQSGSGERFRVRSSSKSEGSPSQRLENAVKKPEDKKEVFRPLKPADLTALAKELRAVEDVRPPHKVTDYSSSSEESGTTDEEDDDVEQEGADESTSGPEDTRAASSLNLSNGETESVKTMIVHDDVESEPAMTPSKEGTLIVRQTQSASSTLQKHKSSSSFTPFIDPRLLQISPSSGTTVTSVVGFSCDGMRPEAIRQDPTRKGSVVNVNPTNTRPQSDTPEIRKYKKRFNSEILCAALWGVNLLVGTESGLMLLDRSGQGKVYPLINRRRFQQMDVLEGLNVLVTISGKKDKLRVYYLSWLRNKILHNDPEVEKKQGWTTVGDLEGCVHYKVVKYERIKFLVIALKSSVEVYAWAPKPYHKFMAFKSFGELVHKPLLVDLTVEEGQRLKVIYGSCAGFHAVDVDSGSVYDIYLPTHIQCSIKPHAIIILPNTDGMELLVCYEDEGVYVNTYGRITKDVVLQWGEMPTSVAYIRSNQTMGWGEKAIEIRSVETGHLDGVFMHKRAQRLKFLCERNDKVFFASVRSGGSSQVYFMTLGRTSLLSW

Compound | inhibition [1] | inhibition [2] | inhibition [3] | inhibition [4] | inhibition [5] | inhibition [6] | inhibition [7] | inhibition [8] | inhibition [9] | inhibition [10] | inhibition [11] | inhibition [12] | inhibition [13] | inhibition [14] | inhibition [15] | inhibition [16] | inhibition [17] | inhibition [18] | inhibition [19] | inhibition [20] | other results
O=c1n(Cc2cncn2-c2cccc(Cl)c2)nc(-c2ccc(Cl)cc2)n1C[C@H](O)C(F)(F)F | 5.56% | -7.96% | 6.86% | 9.53% | -6.06% | 6.3% | -6% | 2.18% | -4.95% | 7.39% | -5.11% | 6.34% | 1% | -1.22% | 14.9% | 1.49% | 1.09% | 2.81% | -1.52% | -8.53% | inhibition [21]: 2.85%; inhibition [22]: 8.71%; inhibition [23]: 3.83%; inhibition [24]: -0.83%; inhibition [25]: 0.92%; inhibition [26]: 12%; Ki (Vasopressin V1a receptor): > 10 µM (not active); inhibition [27]: 3.54%; inhibition [28]: 12.4%; inhibition [29]: 4.55%; inhibition [30]: 14.1%; inhibition [31]: 5.44%; inhibition [32]: -8.94%; Ki (Vasopressin V2 receptor): > 10 µM (not active)
C[C@H](O)c1nc(Cn2nc(-c3ccc(Cl)cc3)n(C[C@H](O)C(F)(F)F)c2=O)nn1-c1cccc(Cl)c1 [PECAVAPTAN] | -1.46% | -3.8% | 2.49% | 7.54% | -7.5% | 10.9% | 24% | 1.13% | -2.43% | 1.81% | -1.8% | 1.83% | 5% | -3.82% | 11.3% | -5.08% | 17.4% | -1.87% | -2.77% | -8.59% | inhibition [21]: -7.44%; inhibition [22]: 6.17%; inhibition [23]: 62.4%; inhibition [24]: 7.33%; inhibition [25]: 7.3%; inhibition [26]: 52%; Ki (Vasopressin V1a receptor): 0.0005 µM (active); inhibition [27]: 8.95%; inhibition [28]: 15.4%; inhibition [29]: -3.59%; inhibition [30]: 9.13%; inhibition [31]: 61%; inhibition [32]: -3.75%; Ki (Vasopressin V2 receptor): 0.0006 µM (active)
